# Several values for one entry are separate records, joined by “and”; a condition that tells them apart may be missing. Identical values can stand only once.
# Experiments:
# Type in all cases: in vivo, mouse
# [1] = tested on: mammary tumors of PyMT mice; assay: PET imaging of PyMT mice with ^18F-FDG; settings: PET 1 hour after i.p. 0.5-2.0 mCi
# Experimental: (§1) Animals. All procedures involving mice were conducted in accordance with the National Institutes of Health regulations concerning the use and care of experimental animals. The study of mice was approved by the Albert Einstein College of Medicine (AECOM) Animal Use Committee. Transgenic mice expressing the polyoma middle T antigen (PyMT) in the mammary epithelium under the control of mouse mammary tumor virus (MMTV) long terminal repeat were provided by Dr. W. J. Muller (McMaster University, Ontario, Canada) and then bred at AECOM. At the age of 10 weeks these mice have multiple mammary tumors 0.15-0.17 cm in diameter. In mice older than 18 weeks the tumors are more than 1 cm in diameter. MMTV-NeuT mice (Muller et al. 1988), which carry erbB-2 (Neu), one of the better known human breast cancer oncogenes, were purchased from Jackson Laboratories. MMTV-NeuT mice were obtained as retired breeders and some of them developed mammary tumors at the age of 5 months, whereas others remained-tumor free until 6-7 months of age. C3H/B6 female mice lacking the PyMT transgene were used as healthy controls in therapy experiments. […]
# (§2) Imaging of mice with ^18F-FDG. […] The tumor to liver ratios (TLRs) were calculated by the formula TLR=counts per pixel in tumor divided by counts per pixel in liver.
# [2] = tested on: mammary tumors in PyMT mice; assay: Treatment of PyMT mice with ^18F-FDG (toleration, apoptosis and necrosis detection)
# Experimental: Animals. All procedures involving mice were conducted in accordance with the National Institutes of Health regulations concerning the use and care of experimental animals. The study of mice was approved by the Albert Einstein College of Medicine (AECOM) Animal Use Committee. Transgenic mice expressing the polyoma middle T antigen (PyMT) in the mammary epithelium under the control of mouse mammary tumor virus (MMTV) long terminal repeat were provided by Dr. W. J. Muller (McMaster University, Ontario, Canada) and then bred at AECOM. At the age of 10 weeks these mice have multiple mammary tumors 0.15-0.17 cm in diameter. In mice older than 18 weeks the tumors are more than 1 cm in diameter. MMTV-NeuT mice (Muller et al. 1988), which carry erbB-2 (Neu), one of the better known human breast cancer oncogenes, were purchased from Jackson Laboratories. MMTV-NeuT mice were obtained as retired breeders and some of them developed mammary tumors at the age of 5 months, whereas others remained-tumor free until 6-7 months of age. C3H/B6 female mice lacking the PyMT transgene were used as healthy controls in therapy experiments. Notch tumor-bearing mice were produced by subcutaneously injecting six to eight week old female nude mice with […] Notch cells on their right flank. One week after implantation the tumors reached 0.5-0.7 cm in diameter and therapy with FDG was initiated.
# Treatment of PyMT mice with ^18F-FDG. After a 4-hour fast, three groups of mice were treated i.p. with the following doses of ^18F-FDG: group 1 (five 10-week-old mice), 2-4 mCi; group 2 (three 22-week-old mice), 2 mCi; group 3 (two C3H/B6 mice), 3 mCi to assess radiation damage to healthy breast tissue. Three 10-week-old and two 22-week-old PyMT mice served as untreated controls. At 10 days after treatment, mice were killed. In younger mice, the right abdominal mammary glands were removed for whole mount preparation as described (Gouon-Evans et al., 2000), then fixed in buffered formalin and sectioned. In older mice, the tumors were removed and processed as above. Some sections were stained with H&E; others were analyzed for the presence of apoptotic and necrotic cells.
# Apoptosis and necrosis detection. The detection of apoptotic and necrotic cells in the tumors was performed with an Apoptag® Plus apoptosis detection kit (Serologicals) in accordance with the manufacturer's instructions. In brief, 3′-OH termini of DNA fragments, which are the hallmark of apoptosis, were labeled with digoxigenin-modified nucleotides by terminal deoxynucleotidyl transferase. This enzyme selectively detects apoptotic over necrotic cells. The labeled DNA was detected with an anti-digoxigenin antibody, and detection was performed with a chromagen: apoptotic cells were stained brown, and areas of necrosis were stained yellow.
# [3] = tested on: mammary tumors of MMTV-neuT mice; assay: PET imaging of MMTV-neuT mice with ^18F-FDG; settings: PET 1 hour after i.p. 0.5-2.0 mCi
# Experimental: as §1, §2
# xenografted Notch tumor [4] = assay: PET-CT imaging of Notch tumor-bearing mice with ^18F-FDG; settings: nude mice with Notch tumor; PET-CT 1 hour after i.p. 0.5 mCi
# Experimental: (§3) Notch cell line. Mouse mammary gland cell line 5505 was derived from mammary tumors arising in transgenic mice which express an activated form of Notch 4 from the mouse mammary tumor virus long terminal repeat (MMTV-LTR) promoter/enhancer (Fitzgerald et al. 2000). This cell line is further referred to herein as Notch cells. The Notch cells were cultured in DMEM supplemented with 10% FCS, 10% NCTC-109, 1% non-essential amino acids, […] D-glucose and 1% penicillin-streptomycin.
# Animals. All procedures involving mice were conducted in accordance with the National Institutes of Health regulations concerning the use and care of experimental animals. The study of mice was approved by the Albert Einstein College of Medicine (AECOM) Animal Use Committee. Transgenic mice expressing the polyoma middle T antigen (PyMT) in the mammary epithelium under the control of mouse mammary tumor virus (MMTV) long terminal repeat were provided by Dr. W. J. Muller (McMaster University, Ontario, Canada) and then bred at AECOM. At the age of 10 weeks these mice have multiple mammary tumors 0.15-0.17 cm in diameter. […]
# Notch tumor-bearing animals were fasted and anesthetized as described above. […] The tumor to normal muscle ratio (TNR) was calculated according to the formula: TNR=average counts per pixel in tumor/average counts per pixel in normal muscle.
# xenografted Notch tumor [5] = assay: Treatment of Notch tumor-bearing mice with ^18F-FDG; settings: Notch tumor-bearing nude mice, 2.5 mCi i.p.
# Experimental: as §3, §1
# Treatment of Notch tumor-bearing mice with ^18F-FDG. […] Animals were monitored for their vital signs and survival for 1 month. Their tumors were measured every 3 days with calipers in three perpendicular planes and the product of the three measurements was multiplied by 0.5 and expressed in cm^3. The growth rate for tumors in cm^3/day was calculated using the formula: […]/number of days survived. […]
smiles,measurement,setting,value
"O=C[C@H]([18F])[C@@H](O)[C@H](O)[C@H](O)CO [^18F-FDG, ^18F-2-deoxy-2-fluoro-D-glucose]","tumor to liver ratio (TLR), mean±SD",[1],1.6±0.1
same,apoptotic cells in treated small tumors,"[2]; 10-week-old PyMT mice, tumors 0.15-0.17 cm, 2-4 mCi i.p., 10 days after treatment",4±1%
same,"necrotic areas, share of tumor volume","[2]; 22-week-old PyMT mice, tumors more than 1 cm, 2 mCi i.p., 10 days after treatment",14%
same,apoptosis or necrosis in healthy mammary glands,"[2]; C3H/B6 mice, 3 mCi i.p.",No apoptosis or necrosis was detected
same,"changes in eating and drinking habits, urine and fecal excretion, or body weight","[2]; PyMT mice, 2-4 mCi i.p., observed for 10 days",No changes
same,radioactivity detected in mice,"[2]; PyMT mice, 24 hours after injection",no radioactivity was detected
same,"tumor to liver ratio (TLR), mean±SD",[3],1.6±0.4
same,tumor to normal muscle ratio (TNR),xenografted Notch tumor [4],3.24 and 3.24±0.20
same,mean (95% CI) time to death,xenografted Notch tumor [5],18 (13-23) days
same,survival period,xenografted Notch tumor [5]; longest survival,up to 30 days
same,median tumor growth rate,xenografted Notch tumor [5]; therapy group,0.020 cm^3/day

# — patent US20060018827A1, “Positron therapy of inflammation, infection and disease” (priority 2004, published 2006)
